From patent US20250230155A1 (Vanderbilt University, priority 2021, published 2025)

Biological target: T1, human mAChR M4 (Homo sapiens, UniProt P08173)
T1 construct: expressed in transfected cells
T1 sequence (P08173 1-479): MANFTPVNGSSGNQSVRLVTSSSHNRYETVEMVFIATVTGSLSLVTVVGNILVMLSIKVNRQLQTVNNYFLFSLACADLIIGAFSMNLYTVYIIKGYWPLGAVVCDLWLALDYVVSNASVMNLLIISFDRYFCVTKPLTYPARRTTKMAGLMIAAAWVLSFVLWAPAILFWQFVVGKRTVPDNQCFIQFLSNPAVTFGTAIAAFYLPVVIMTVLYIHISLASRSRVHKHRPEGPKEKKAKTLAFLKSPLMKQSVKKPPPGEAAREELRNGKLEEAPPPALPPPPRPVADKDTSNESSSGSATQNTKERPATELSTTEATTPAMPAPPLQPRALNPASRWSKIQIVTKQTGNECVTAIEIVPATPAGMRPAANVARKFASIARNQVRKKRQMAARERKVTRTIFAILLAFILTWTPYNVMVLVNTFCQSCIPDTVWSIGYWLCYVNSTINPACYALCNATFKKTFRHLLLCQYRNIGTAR
Assay: mAChR M4 cell-based functional assay (calcium mobilization, CHO-K1 hM4-Gqi5 cells)
Settings: for Emax at 30 µM: CHO-K1, % ACh maximum at 30 μM, human M4; for EC50: positive allosteric modulator activity, increase in the EC20 acetylcholine response, CHO-K1 hM4-Gqi5 cells, read-out: Human M4 EC50
How it was run: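 Fluorescent calcium read-out (Fluo-4 AM, FDSS, 1 Hz) in hM4-Gqi5 CHO-K1 cells, 11-point 1:3 compound series. Agonism scored on compound addition, PAM activity as increase of the 144 s EC20 acetylcholine response, antagonism as decrease of the 230 s EC80 response; four-parameter logistic fits give EC50 and Emax.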

| Emax at 30 µM [%] | EC50 [nM] | SMILES |
| --- | --- | --- |
| 108 | 138 | Cc1cnc2c(c1)CN(c1ncc(C(=O)NCc3cncs3)cc1C)CC2 [Example 439, 5-methyl-6-(3-methyl-7,8-dihydro-1,6-naphthyridin-6(5H)-yl)-N-(thiazol-5-ylmethyl)nicotinamide] |
| 88 | 143 | Cc1cnc2c(c1)CN(c1ncc(C(=O)NCc3ccncc3C)cc1C)CC2 [Example 441, 5-methyl-6-(3-methyl-7,8-dihydro-1,6-naphthyridin-6(5H)-yl)-N-((3-methylpyridin-4-yl)methyl)nicotinamide] |
| 100 | 196 | Cc1cc(C(=O)NCc2ccncc2)cnc1N1CCc2ncc(C(F)(F)F)cc2C1 [Example 444, 5-methyl-N-(pyridin-4-ylmethyl)-6-(3-(trifluoromethyl)-7,8-dihydro-1,6-naphthyridin-6(5H)-yl)nicotinamide] |
| 87 | 1140 | Cc1cc(C(=O)NCc2cnc3ccccc3c2)cnc1N1CCc2ncc(C(F)(F)F)cc2C1 [Example 446, 5-methyl-N-(quinolin-3-ylmethyl)-6-(3-(trifluoromethyl)-7,8-dihydro-1,6-naphthyridin-6(5H)-yl)nicotinamide] |
| 105 | 84 | Cc1cc(C(=O)NCc2cncs2)cnc1N1CCc2ncc(Nc3ccnn3C)cc2C1 [Example 449, 5-methyl-6-(3-((1-methyl-1H-pyrazol-5-yl)amino)-7,8-dihydro-1,6-naphthyridin-6(5H)-yl)-N-(thiazol-5-ylmethyl)nicotinamide] |
| 71 | 215 | Cc1cc(C(=O)Nc2ccncc2)cnc1N1CCc2ncc(-c3cn(C)nc3C)cc2C1 [Example 450, 6-(3-(1,3-dimethyl-1H-pyrazol-4-yl)-7,8-dihydro-1,6-naphthyridin-6(5H)-yl)-5-methyl-N-(pyridin-4-yl)nicotinamide] |
| 92 | 150 | Cc1cnccc1CNC(=O)c1cnc(N2CCc3ncc(-c4cn(C)nc4C)cc3C2)c(C)c1 [Example 451, 6-(3-(1,3-dimethyl-1/-pyrazol-4-yl)-7,8-dihydro-1,6-naphthyridin-6(5H)-yl)-5-methyl-N-((3-methylpyridin-4-yl)methyl)nicotinamide] |
| 89 | 1790 | Cc1cc(C(=O)NCc2csc3ccccc23)cnc1N1CCc2ncc(-c3cn(C)nc3C)cc2C1 [Example 452, N-(benzo[b]thiophen-3-ylmethyl)-6-(3-(1,3-dimethyl-1H-pyrazol-4-yl)-7,8-dihydro-1,6-naphthyridin-6(5H)-yl)-5-methylnicotinamide] |
| 92 | 828 | Cc1cc(C(=O)NCc2nc3ccccc3s2)cnc1N1CCc2ncc(-c3cn(C)nc3C)cc2C1 [Example 453, N-(benzo[d]thiazol-2-ylmethyl)-6-(3-(1,3-dimethyl-1H-pyrazol-4-yl)-7,8-dihydro-1,6-naphthyridin-6(5H)-yl)-5-methylnicotinamide] |
| 60 | 3900 | Cc1cc(C(=O)N(C)Cc2ccncc2)cnc1N1CCc2ncc(-c3cn(C)nc3C)cc2C1 [Example 454, 6-(3-(1,3-dimethyl-1/-pyrazol-4-yl)-7,8-dihydro-1,6-naphthyridin-6(5H)-yl)-N,5-dimethyl-N-(pyridin-4-ylmethyl)nicotinamide] |
| 93 | 581 | Cc1cc(C(=O)NCc2cnc(Cl)s2)cnc1N1CCc2ncc(-c3cn(C)nc3C)cc2C1 [Example 455, N-((2-chlorothiazol-5-yl)methyl)-6-(3-(1,3-dimethyl-1H-pyrazol-4-yl)-7,8-dihydro-1,6-naphthyridin-6(5H)-yl)-5-methylnicotinamide] |
| 75 | 888 | Cc1cc(C(=O)NCc2ccc(C#N)nc2)cnc1N1CCc2ncc(-c3cn(C)nc3C)cc2C1 [Example 456, N-((6-cyanopyridin-3-yl)methyl)-6-(3-(1,3-dimethyl-1H-pyrazol-4-yl)-7,8-dihydro-1,6-naphthyridin-6(5H)-yl)-5-methylnicotinamide] |
| 85 | 576 | Cc1cc(C(=O)NCc2cccnc2)cnc1N1CCc2ncc(-c3cn(C)nc3C)cc2C1 [Example 457, 6-(3-(1,3-dimethyl-1H-pyrazol-4-yl)-7,8-dihydro-1,6-naphthyridin-6(5H)-yl)-5-methyl-N-(pyridin-3-ylmethyl)nicotinamide] |
| 84 | 562 | Cc1cc(C(=O)NCc2ccccn2)cnc1N1CCc2ncc(-c3cn(C)nc3C)cc2C1 [Example 458, 6-(3-(1,3-dimethyl-1H-pyrazol-4-yl)-7,8-dihydro-1,6-naphthyridin-6(5H)-yl)-5-methyl-N-(pyridin-2-ylmethyl)nicotinamide] |
| 71 | 1190 | Cc1cc(C(=O)NCC2CCOCC2)cnc1N1CCc2ncc(-c3cn(C)nc3C)cc2C1 [Example 459, 6-(3-(1,3-dimethyl-1H-pyrazol-4-yl)-7,8-dihydro-1,6-naphthyridin-6(5H)-yl)-5-methyl-N-((tetrahydro-2H-pyran-4-yl)methyl)nicotinamide] |
| 71 | 1830 | Cc1cc(C(=O)NCC(C)C)cnc1N1CCc2ncc(-c3cn(C)nc3C)cc2C1 [Example 460, 6-(3-(1,3-dimethyl-1H-pyrazol-4-yl)-7,8-dihydro-1,6-naphthyridin-6(5H)-yl)-N-isobutyl-5-methylnicotinamide] |

More lines, now with the values behind:

| SMILES | Emax at 30 µM [%] | EC50 [nM] |
| --- | --- | --- |
| Cc1ccc(OCCOc2cnc3c(c2)CN(c2ncc(C#N)cc2C)CC3)cc1 [Example 431, 5-methyl-6-(3-(2-(p-tolyloxy)ethoxy)-7,8-dihydro-1,6-naphthyridin-6(5H)-yl)nicotinonitrile] | 47 | ≥ 10000 |
| Cc1cc(C#N)cnc1N1CCc2ncc(OCCCOc3ccccc3)cc2C1 [Example 432, 5-methyl-6-(3-(3-phenoxypropoxy)-7,8-dihydro-1,6-naphthyridin-6(5H)-yl)nicotinonitrile] | 48 | 6800 |
| Cc1cc(C#N)cnc1N1CCc2ncc(OCCOC3CCCC3)cc2C1 [Example 433, 6-(3-(2-(cyclopentyloxy)ethoxy)-7,8-dihydro-1,6-naphthyridin-6(5H)-yl)-5-methylnicotinonitrile] | 74 | 897 |
| COCCOc1cnc2c(c1)CN(c1ncc(C#N)cc1C)CC2 [Example 434, 6-(3-(2-methoxyethoxy)-7,8-dihydro-1,6-naphthyridin-6(5H)-yl)-5-methylnicotinonitrile] | 102 | 958 |
| Cc1cncc(-c2cnc3c(c2)CN(c2nnc(C#N)c(C)c2C)CC3)c1 [Example 435, 4,5-dimethyl-6-(3-(5-methylpyridin-3-yl)-7,8-dihydro-1,6-naphthyridin-6(5H)-yl)pyridazine-3-carbonitrile] | 61 | 914 |
| Cc1cc(F)ncc1-c1cnc2c(c1)CN(c1ncc(C#N)cc1C)CC2 [Example 436, 6-(3-(6-fluoro-4-methylpyridin-3-yl)-7,8-dihydro-1,6-naphthyridin-6(5H)-yl)-5-methylnicotinonitrile] | 98 | 69 |
| Cc1cc(F)ncc1-c1cnc2c(c1)CN(c1nccc(C#N)c1C)CC2 [Example 437, 2-(3-(6-fluoro-4-methylpyridin-3-yl)-7,8-dihydro-1,6-naphthyridin-6(5H)-yl)-3-methylisonicotinonitrile] | 47 | 692 |
| Cc1cnc2c(c1)CN(c1ncc(C(=O)Nc3ccncc3)cc1C)CC2 [Example 438, 5-methyl-6-(3-methyl-7,8-dihydro-1,6-naphthyridin-6(5H)-yl)-N-(pyridin-4-yl)nicotinamide] | 88 | 517 |
| Cc1cc(C(=O)Nc2ccncc2)cnc1N1CCc2ncc(C(F)(F)F)cc2C1 [Example 442, 5-methyl-N-(pyridin-4-yl)-6-(3-(trifluoromethyl)-7,8-dihydro-1,6-naphthyridin-6(5H)-yl)nicotinamide] | 96 | 424 |
| Cc1cc(C(=O)NCc2cncs2)cnc1N1CCc2ncc(C(F)(F)F)cc2C1 [Example 443, 5-methyl-N-(thiazol-5-ylmethyl)-6-(3-(trifluoromethyl)-7,8-dihydro-1,6-naphthyridin-6(5H)-yl)nicotinamide] | 107 | 157 |
| Cc1cnccc1CNC(=O)c1cnc(N2CCc3ncc(C(F)(F)F)cc3C2)c(C)c1 [Example 445, 5-methyl-N-((3-methylpyridin-4-yl)methyl)-6-(3-(trifluoromethyl)-7,8-dihydro-1,6-naphthyridin-6(5H)-yl)nicotinamide] | 100 | 170 |
| Cc1cc(C(=O)NCc2csc3ccccc23)cnc1N1CCc2ncc(C(F)(F)F)cc2C1 [Example 447, N-(benzo[b]thiophen-3-ylmethyl)-5-methyl-6-(3-(trifluoromethyl)-7,8-dihydro-1,6-naphthyridin-6(5H)-yl)nicotinamide] | 97 | 1640 |
| Cc1cc(C(N)=O)cnc1N1CCc2ncc(C(F)(F)F)cc2C1 [Example 448, 5-methyl-6-(3-(trifluoromethyl)-7,8-dihydro-1,6-naphthyridin-6(5H)-yl)nicotinamide] | 102 | 537 |
